Data from US20050004044A1, “Use of orsaponin [3beta, 16beta, 17 alpha-trihydroxycholost-5-en-22-one 16-0-(2-0-4-methoxybenzoyl-beta-D-xylopyranosyl)-(1->3)-(2-0-acetyl-alpha-L-arabinopyranoside)] or OSW-1 and its derivatives for cancer therapeutics” (priority 2003, published 2005).
pIC50: −log10 of the molar value.

Columns and labels:
ML-1 cells = test: Mitochondrial transmembrane potential (rhodamine-123), ML-1; format: cell-based, human; conditions: ML-1, 1 nM, 16 and 24 h
Description: FIG. 11. Effect of orsaponin (OSW-1) on mitochondrial transmembrane potential ML-1 cells. The parental ML-1 line and its mutant with mitochondrial respiration defect, clone C19, were incubated with 1 nM OSW-1 for the indicated times. Change in mitochondrial transmembrane potential was measured by cytometry analysis, using rhodamine-123 as a potential-sensitive fluorescent probe.
3. Analysis of the Mitochondrial Transmembrane Potential. To evaluate the role of mitochondrial respiration in the cytotoxicity of OSW-1, changes in the potential of mitochondrial membrane were analyzed. Following the treatment of cells with OSW-1 for different time periods, cells were incubated with rhodamine-123 which is a potential-sensitive dye. Cytometric analysis was used to record changes in mitochondrial potential. […]
The effect of OSW-1 on mitochondrial transmembrane potential of ML-1 cells and the corresponding mitochondrial respiration defective mutant cell line C19 were analyzed by incubating with 1 nM OSW-1 for 4, 16 and 24 hours. Change in mitochondrial transmembrane potential was measured by cytometry analysis, using rhodamine-123 as a potential-sensitive fluorescent probe and are depicted in FIG. 11.

AsPC-1/IκBα-ND cells = test: MTT cell growth inhibition, AsPC-1 with NFκB inactivated; format: cell-based; conditions: Homo sapiens, ASPC1, 72 h
Description: FIG. 4. The anticancer activity of Orsaponin (OSW-1) is not affected by NFκB expression in pancreatic cancer cells. Human pancreatic cancer cells AsPC-1 with constitutive activation of NFκB or inactivation of NFκB by dominant negative IκBα (AsPC-1/IκBα-ND) were treated with the indicated concentrations of OSW-1 for 72 h. Cell growth inhibition was measured by MTT assay.
1. MTT Assays. For these assays either cancer cell lines were used. Alternatively, mononuclear cells from peripheral blood samples of CLL patients or normal donors were separated by Ficoll Hipaque fractionation and resuspended in DMEM complete medium. Malignant cells from various human cell lines (usually at 5×10^4 cells/ml) or mononuclear cells from peripheral blood of leukemia patients and healthy donors (1×10^6 cells/ml) were incubated in either αMEM or RPMI 1640 with or without various concentrations of OSW-1 in the range of 0-10 nM. Each experimental condition was done in triplicate. After the indicated number of days (usually 3 days or 72 hours) of exposure to OSW-1, cell survival was assessed by the addition of the MTT dye to the wells. […] Survival of cells under orsaponin treatment was evaluated as a percentage of control cell growth. […]
OSW-1 Inhibits Growth of Pancreatic Cancer Cells Irrespective of NFκB Expression. […] Cell growth inhibition was measured by MTT assay. […]

[1] = tested on: normal human astrocytes (immortalized with hTER); test: MTT cell growth inhibition, normal astrocytes; format: cell-based; conditions: Astrocyte, 72 h
Description: 1. MTT Assays. For these assays either cancer cell lines were used. Alternatively, mononuclear cells from peripheral blood samples of CLL patients or normal donors were separated by Ficoll Hipaque fractionation and resuspended in DMEM complete medium. Malignant cells from various human cell lines (usually at 5×10^4 cells/ml) or mononuclear cells from peripheral blood of leukemia patients and healthy donors (1×10^6 cells/ml) were incubated in either αMEM or RPMI 1640 with or without various concentrations of OSW-1 in the range of 0-10 nM. Each experimental condition was done in triplicate. After the indicated number of days (usually 3 days or 72 hours) of exposure to OSW-1, cell survival was assessed by the addition of the MTT dye to the wells. The MTT dye changes its color depending on the presence of live cells in the well. Survival of cells under orsaponin treatment was evaluated as a percentage of control cell growth. Alternatively, one can also use the dye trypan-blue which penetrates dead cells thereby allowing one to count live cells under the microscope and estimating percentage survival.
To test the therapeutic selectivity of Orsaponin and 17-deoxyorsaponin, their effect on human brain tumor cells (U87 malignant glioma) and normal human astrocytes were compared. […] Cell growth inhibition was measured by MTT assay (FIG. 21).

HL-60 cells = test: Apoptosis and cell cycle (annexin V, DNA fragmentation, flow cytometry), HL-60; format: cell-based, human; conditions: HL-60, 0.5 nM
Description: FIGS. 1A-1B. Induction of apoptosis by Orsaponin (OSW-1) in human leukemia cells. HL-60 cells in exponentially growing phase were treated with 0.5 nM OSW-1 for the indicated times. Drug induced apoptosis was analyzed by the annexin V assay as shown in FIG. 1A and by the DNA fragmentation assay as shown in FIG. 1B. In FIG. 1A, the early and late stages of apoptotic cells appear in the low-right window and upper-right window, respectively.
FIG. 9. Mitochondrial respiration plays an important role in the cytotoxic action of Orsaponin (OSW-1). The parental HL-60 line and its mutant with mitochondrial respiration defect, clone C6F, were incubated with 0.5 nM OSW-1 for the indicated times. Apoptosis and change in cell cycle distribution were assayed by flow cytometry analysis.
2. Analysis of Apoptosis. Two methods were used to analyze apoptosis by assaying different events in the apoptotic pathways. Percentages of apoptotic cells induced by orsaponins of the invention were evaluated using flow cytometer. Different methods of staining cells for apoptosis were utilized to assess different aspects of apoptotic cascade.
(i) Annexin V Staining. Annexin V binds to cells that express phosphatidylserine on the outer layer of the cell membrane. […] Cells were analyzed on flow cytometer.
(ii) DNA Fragmentation Assay. […] The cell are then lysed in a solution containing 10 mM Tris-HCl, pH 7.5, 25 mM EDTA, 0.5% SDS, and […] protease K. After digestion and removal of the cellular protein from the cellular DNA, the isolated DNA is analyzed on a 1.8% agarose gel, and visualized by ethidium bromide staining. […]
Two cancer cell lines and their mutant mitochondrial respiration deficient clones were analyzed for apoptosis and changes in cell-cycle following exposure to OSW-1. […] Consistent with these observations, apoptosis was also detected by DNA fragmentation assays performed at 24 and 32 hours after HL-60 cells are treated with OSW-1; DNA fragmentation was not observed in C6F cells even at 32 hours of drug incubation (data not shown).

SMILES: COc1ccc(C(=O)OC2C(OC3C(O)COC(O[C@H]4C[C@H]5[C@@H]6CC=C7C[C@@H](O)CC[C@]7(C)[C@H]6CC[C@]5(C)[C@@]4(O)[C@H](C)C(=O)CCC(C)C)C3OC(C)=O)OCC(O)C2O)cc1 (stereo partly drawn) [OSW-1, 3β, 16β, 17 α-trihydroxycholost-5-en-22-one 16-O-(2-O-4-methoxybenzoyl-β-D-xylopyranosyl)-(1->3)-(2-O-acetyl-α-L-arabinopyranoside)]
- change in mitochondrial transmembrane potential (ML-1 cells): substantial loss of mitochondrial transmembrane potential
- pIC50 (AsPC-1/IκBα-ND cells): ~9.52
- pIC50 [1]: ~9.00
- change in cell cycle distribution (HL-60 cells; 16 hours): significant reduction of G1 phase cells and an increase of cells in the G2/M phase region
- apoptosis (subG1) (HL-60 cells; 24 h, flow cytometry): a substantial portion of the drug-treated HL-60 cells became apoptotic
- time after incubation at which apoptosis occurred (HL-60 cells; annexin V and DNA fragmentation): 16 h
